According to ChEMBL document CHEMBL1201862, “PubChem BioAssay data set” (2004):
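1) Cells in 96-well plates. 2) Compound, 48 h, 5 concentrations. 3) Linear interpolation between surrounding doses. 4) Unreached endpoint = highest concentration. The concentration for 50% growth inhibition is given as GI50.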 Activity calls are given as the source filed them. Rule as the data show it: active = GI50 up to about 1.1 µM and inactive = higher.

How the values were obtained:
Test in all cases: growth of human tumour cells (NCI), 48 h
[1] = tested on: SNB-75
[2] = tested on: SF-539
[3] = tested on: SN12C
[4] = tested on: KM12
[5] = tested on: EKVX
[6] = tested on: MDA-MB-231
[7] = tested on: UACC-257
[8] = tested on: MOLT-4
[9] = tested on: 786-0
[10] = tested on: NCI-H226
[11] = tested on: BT-549
[12] = tested on: SF-268
[13] = tested on: K562
[14] = tested on: CCRF-CEM
[15] = tested on: HCC 2998
[16] = tested on: OVCAR-5
[17] = tested on: MDA-N
[18] = tested on: Malme-3M
[19] = tested on: HL-60

SMILES: CC1=C(C(=O)OC(C)(C)C)C(c2ccc([N+](=O)[O-])cc2)C(C(=O)OC(C)(C)C)=C(C)N1
- GI50 [1]: 24.1 µM (inactive)
- GI50 [2]: 19.8 µM (inactive)
- GI50 [3]: 19.8 µM (inactive)
- GI50 [4]: 20.7 µM (inactive)
- GI50 [5]: 18.5 µM (inactive)
- GI50 [6]: 22.2 µM (inactive)
- GI50 [7]: 18.8 µM (inactive)
- GI50 [8]: 16.9 µM (inactive)
- GI50 [9]: 22.1 µM (inactive)
- GI50 [10]: 21.3 µM (inactive)
- GI50 [11]: 28 µM (inactive)
- GI50 [12]: 21.7 µM (inactive)
- GI50 [13]: 25.4 µM (inactive)
- GI50 [14]: 0.187 µM (active)
- GI50 [15]: 13.2 µM (inactive)
- GI50 [16]: 19.1 µM (inactive)
- GI50 [17]: 25.5 µM (inactive)

SMILES: CCOC(=O)Nc1nn[nH]c1Cl
- GI50 [18]: > 100 µM (inactive)
- GI50 [1]: > 100 µM (inactive)
- GI50 [2]: > 100 µM (inactive)
- GI50 [3]: > 100 µM (inactive)
- GI50 [4]: 63 µM (inactive)
- GI50 [5]: > 100 µM (inactive)
- GI50 [6]: > 100 µM (inactive)
- GI50 [7]: > 100 µM (inactive)
- GI50 [8]: > 100 µM (inactive)
- GI50 [9]: > 100 µM (inactive)
- GI50 [10]: > 100 µM (inactive)
- GI50 [11]: > 100 µM (inactive)
- GI50 [12]: > 100 µM (inactive)
- GI50 [13]: > 100 µM (inactive)
- GI50 [15]: > 100 µM (inactive)
- GI50 [16]: > 100 µM (inactive)
- GI50 [17]: > 100 µM (inactive)

SMILES: CCOC(=O)/C=C(/C(=O)OCC)n1ccc(=O)n(Cc2cn(CCCCOC(C)=O)nn2)c1=O
- GI50 [1]: > 100 µM (inactive)
- GI50 [2]: > 100 µM (inactive)
- GI50 [3]: > 100 µM (inactive)
- GI50 [4]: > 100 µM (inactive)
- GI50 [5]: > 100 µM (inactive)
- GI50 [6]: > 100 µM (inactive)
- GI50 [7]: > 100 µM (inactive)
- GI50 [8]: 50.2 µM (inactive)
- GI50 [9]: > 100 µM (inactive)
- GI50 [10]: 32.9 µM (inactive)
- GI50 [11]: > 100 µM (inactive)
- GI50 [12]: > 100 µM (inactive)
- GI50 [13]: 55 µM (inactive)
- GI50 [14]: 16.2 µM (inactive)
- GI50 [15]: > 100 µM (inactive)
- GI50 [16]: > 100 µM (inactive)
- GI50 [17]: > 100 µM (inactive)

SMILES: N#CC(C#N)=C1SC(=N\c2ccccc2)/C(=N/c2ccccc2)N1c1ccccc1
- GI50 [18]: 22.2 µM (inactive)
- GI50 [1]: 30 µM (inactive)
- GI50 [2]: 10.1 µM (inactive)
- GI50 [3]: 23.9 µM (inactive)
- GI50 [4]: > 38.5 µM (inactive)
- GI50 [5]: 36.6 µM (inactive)
- GI50 [6]: 7.8 µM (inactive)
- GI50 [7]: 15.7 µM (inactive)
- GI50 [8]: 2.24 µM (inactive)
- GI50 [9]: 14.8 µM (inactive)
- GI50 [10]: 23.4 µM (inactive)
- GI50 [11]: 8.24 µM (inactive)
- GI50 [12]: 19.3 µM (inactive)
- GI50 [13]: 2.3 µM (inactive)
- GI50 [14]: 2.09 µM (inactive)
- GI50 [15]: 15.2 µM (inactive)
- GI50 [16]: 20.7 µM (inactive)
- GI50 [17]: 12.4 µM (inactive)

SMILES: N#Cc1c(-c2ccc(Cl)cc2Cl)nc2[nH]nc(S)n2c1=O
- GI50 [18]: > 100 µM (inactive)
- GI50 [19]: > 100 µM (inactive)
- GI50 [3]: > 100 µM (inactive)
- GI50 [4]: > 100 µM (inactive)
- GI50 [5]: > 100 µM (inactive)
- GI50 [6]: > 100 µM (inactive)
- GI50 [7]: > 100 µM (inactive)
- GI50 [8]: > 100 µM (inactive)
- GI50 [9]: > 100 µM (inactive)
- GI50 [10]: > 100 µM (inactive)
- GI50 [11]: > 100 µM (inactive)
- GI50 [12]: > 100 µM (inactive)
- GI50 [14]: > 100 µM (inactive)
- GI50 [15]: > 100 µM (inactive)
- GI50 [16]: > 100 µM (inactive)
- GI50 [17]: > 100 µM (inactive)

SMILES: Cc1cc2c(c(C(=O)NCC(=O)O)c1)Oc1c(cc(C)cc1C(=O)NCC(=O)O)S2
- GI50 [18]: > 100 µM (inactive)
- GI50 [1]: > 100 µM (inactive)
- GI50 [2]: > 100 µM (inactive)
- GI50 [3]: > 100 µM (inactive)
- GI50 [4]: > 100 µM (inactive)
- GI50 [5]: > 100 µM (inactive)
- GI50 [6]: > 100 µM (inactive)
- GI50 [7]: > 100 µM (inactive)
- GI50 [8]: > 100 µM (inactive)
- GI50 [9]: > 100 µM (inactive)
- GI50 [10]: > 100 µM (inactive)
- GI50 [11]: > 100 µM (inactive)
- GI50 [12]: > 100 µM (inactive)
- GI50 [13]: > 100 µM (inactive)
- GI50 [14]: > 100 µM (inactive)
- GI50 [15]: > 100 µM (inactive)
- GI50 [16]: > 100 µM (inactive)
- GI50 [17]: > 100 µM (inactive)

SMILES: O=C(Cn1c2ccc(Br)cc2c2nc3ccccc3nc21)NC1CCCCC1
- GI50 [18]: > 100 µM (inactive)
- GI50 [1]: 36.1 µM (inactive)
- GI50 [3]: > 100 µM (inactive)
- GI50 [4]: > 100 µM (inactive)
- GI50 [6]: > 100 µM (inactive)
- GI50 [7]: > 100 µM (inactive)
- GI50 [8]: > 100 µM (inactive)
- GI50 [9]: > 100 µM (inactive)
- GI50 [10]: > 100 µM (inactive)
- GI50 [11]: > 100 µM (inactive)
- GI50 [12]: > 100 µM (inactive)
- GI50 [13]: > 100 µM (inactive)
- GI50 [15]: > 100 µM (inactive)
- GI50 [16]: > 100 µM (inactive)
- GI50 [17]: > 100 µM (inactive)

SMILES: Clc1nc(NCCc2ccccc2)c2ncn(-c3ccccc3)c2n1
- GI50 [18]: 21.1 µM (inactive)
- GI50 [1]: 18 µM (inactive)
- GI50 [3]: 27.5 µM (inactive)
- GI50 [4]: 16.8 µM (inactive)
- GI50 [5]: 22.5 µM (inactive)
- GI50 [6]: 21.8 µM (inactive)
- GI50 [7]: 15.8 µM (inactive)
- GI50 [8]: 22 µM (inactive)
- GI50 [9]: 16.9 µM (inactive)
- GI50 [10]: 24.1 µM (inactive)
- GI50 [11]: 23.1 µM (inactive)
- GI50 [12]: 36.5 µM (inactive)
- GI50 [13]: 25.5 µM (inactive)
- GI50 [15]: 17.1 µM (inactive)
- GI50 [16]: 37.9 µM (inactive)
- GI50 [17]: 18.5 µM (inactive)

SMILES: C=C(C)CCN(C(=O)OC(C)(C)C)c1cc(C(C)C)co1
- GI50 [19]: 11.8 µM (inactive)
- GI50 [2]: > 100 µM (inactive)
- GI50 [3]: > 100 µM (inactive)
- GI50 [4]: 64.3 µM (inactive)
- GI50 [5]: 45.1 µM (inactive)
- GI50 [6]: > 100 µM (inactive)
- GI50 [7]: 34 µM (inactive)
- GI50 [8]: 30.3 µM (inactive)
- GI50 [9]: > 100 µM (inactive)
- GI50 [10]: 57.7 µM (inactive)
- GI50 [11]: 12.2 µM (inactive)
- GI50 [12]: 0.344 µM (active)
- GI50 [13]: 34.5 µM (inactive)
- GI50 [14]: 25.6 µM (inactive)
- GI50 [15]: 52 µM (inactive)
- GI50 [16]: > 100 µM (inactive)
- GI50 [17]: 95.7 µM (inactive)

SMILES: O=c1[nH]nc(Cc2ccccc2)n1/N=C/c1cccs1
- GI50 [18]: > 100 µM (inactive)
- GI50 [1]: > 100 µM (inactive)
- GI50 [2]: > 100 µM (inactive)
- GI50 [3]: > 100 µM (inactive)
- GI50 [4]: > 100 µM (inactive)
- GI50 [5]: > 100 µM (inactive)
- GI50 [6]: 23.4 µM (inactive)
- GI50 [7]: > 100 µM (inactive)
- GI50 [8]: 80.7 µM (inactive)
- GI50 [9]: > 100 µM (inactive)
- GI50 [10]: > 100 µM (inactive)
- GI50 [11]: > 100 µM (inactive)
- GI50 [12]: > 100 µM (inactive)
- GI50 [13]: > 100 µM (inactive)
- GI50 [14]: > 100 µM (inactive)
- GI50 [15]: > 100 µM (inactive)
- GI50 [16]: > 100 µM (inactive)
- GI50 [17]: > 100 µM (inactive)

SMILES: Cc1cc(N(CCC#N)CCC#N)ccc1C(/N=N/c1ccc(C(=O)O)cc1)=N\NC(=O)c1ccccc1
- GI50 [18]: 22.5 µM (inactive)
- GI50 [1]: 34.3 µM (inactive)
- GI50 [2]: 16.3 µM (inactive)
- GI50 [3]: 47.3 µM (inactive)
- GI50 [4]: 18.2 µM (inactive)
- GI50 [5]: > 100 µM (inactive)
- GI50 [6]: 57.8 µM (inactive)
- GI50 [7]: 65.2 µM (inactive)
- GI50 [8]: 47.1 µM (inactive)
- GI50 [9]: 41.3 µM (inactive)
- GI50 [10]: 40.9 µM (inactive)
- GI50 [11]: 55.6 µM (inactive)
- GI50 [12]: 53.8 µM (inactive)
- GI50 [13]: 12.7 µM (inactive)
- GI50 [14]: 30.4 µM (inactive)
- GI50 [15]: 17.3 µM (inactive)
- GI50 [16]: > 100 µM (inactive)
- GI50 [17]: 4.31 µM (inactive)

SMILES: O=C1Cc2c([nH]c3ccc(C(=O)O)cc23)-c2ccccc2N1
- GI50 [18]: > 100 µM (inactive)
- GI50 [19]: 37.5 µM (inactive)
- GI50 [2]: > 100 µM (inactive)
- GI50 [3]: > 100 µM (inactive)
- GI50 [4]: > 100 µM (inactive)
- GI50 [6]: > 100 µM (inactive)
- GI50 [7]: > 100 µM (inactive)
- GI50 [8]: > 100 µM (inactive)
- GI50 [9]: > 100 µM (inactive)
- GI50 [10]: > 100 µM (inactive)
- GI50 [11]: > 100 µM (inactive)
- GI50 [12]: > 100 µM (inactive)
- GI50 [13]: > 100 µM (inactive)
- GI50 [14]: > 100 µM (inactive)
- GI50 [15]: > 100 µM (inactive)
- GI50 [16]: 6.79 µM (inactive)
- GI50 [17]: > 100 µM (inactive)
